# From US11376277B2, “Synergistic medicinal compositions for treating dysfunctional D-serine signaling” (CELAGENEX RESEARCH (INDIA) PVT. LTD., priority 2020, dated 2022)
# Like-named read-outs stand apart in the source and are kept apart here.
# Tests used:
# human SR = target: T1, human SR (Homo sapiens, UniProt Q9GZT4); conditions: cited from earlier work
# T1 sequence (Q9GZT4 1-340): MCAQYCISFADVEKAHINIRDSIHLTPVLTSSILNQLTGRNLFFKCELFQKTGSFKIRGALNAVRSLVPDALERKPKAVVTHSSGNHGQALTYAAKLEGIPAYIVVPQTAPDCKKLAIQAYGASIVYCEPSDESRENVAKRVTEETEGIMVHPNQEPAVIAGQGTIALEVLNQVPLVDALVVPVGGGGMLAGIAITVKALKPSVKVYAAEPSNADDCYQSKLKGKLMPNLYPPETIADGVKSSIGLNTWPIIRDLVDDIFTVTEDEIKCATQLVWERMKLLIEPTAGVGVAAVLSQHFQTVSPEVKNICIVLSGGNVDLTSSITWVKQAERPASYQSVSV
# D-serine [1] = experiment: Pharmacokinetics profile of D-serine in rat model, blood plasma; conditions: for ln(C) / Conc / AUC: D-serine in rat plasma; for Conc: doses per Table 1
# Experimental: (§1) To assess and compare the pharmacokinetics profile of D-serine in rat model.
# (§2) Six groups were divided into 4 sets of 3 rats each/subset for bleeding and organ (brain) collection—Total 72 rats
# Plasma was separated using refrigerated centrifuge & stored in −80° C. before analysis. Blood was collected at time point 0, 2, 6 and 10 hrs at least from 3 rats/group/time point.
# (§3) Supernatant was filtered with 0.2 micron amicon syringe filter (Millipore, Hessen, Germany), then directly transferred into auto sampler vials
# (§4) An Accela™ ultra-high performance liquid chromatography (UHPLC) system (Thermo Fisher, Waltham, USA), coupled online via heated electrospray ionization source (HESI) with a Q-Exactive-Orbitrap mass spectrometer (Thermo Fisher), was employed for global metabolomics profiling with 1 μL sample injection volume. The metabolites were profiled using a C18 Hypersil Gold column (1.9 μm, 2.1×150 mm, Thermo).
# (§5) The temperature of column oven was set at 35° C. and the sample manager was maintained at 4° C. The eluents acetonitrile and water containing 0.1% formic acid were employed in the electrospray ionization-positive (ESI+) mode.
# (§6) The area under the plasma concentration time curve (AUC) value was calculated to the last quantifiable sample (AUClast) by using the log-linear trapezoidal rule.
# D-serine [2] = experiment: Pharmacokinetics profile of D-serine in rat model, brain tissue sample; conditions: for ln(C) / Conc / AUC: D-serine in rat brain tissue; for Conc: doses per Table 1
# Experimental: as §1, §2
# Organ (Brain) collection: Rats were sacrificed each time point (3 rats/group/time point) by decapitation at 0, 2, 6 or 10 hr post dose. Brain was removed and cerebellum dissected on ice. Tissue samples were frozen on dry ice and stored at −80° C. until analysis.
# as §3, §4, §5, §6
# [3] = D-serine, rat plasma, non-compartmental analysis
# [4] = D-serine, rat brain tissue, non-compartmental analysis
compound,measurement,setting,value
[Ca+2] [Ca′],activity of the enzyme relative to purified human SR without divalent cation supplementation,human SR; @1 mM,134%
"N[C@@H](COS(=O)(=O)O)C(=O)O [L-Serine 0-sulfate, L-Serine O-sulfate, reference compound]",D-Serine over control,"D-serine [1]; rat, treated with serine racemase inhibitor, 1.86 mg/kg",substantially reduced
[Mg+2] [Mg^2+],activity of the enzyme relative to purified human SR without divalent cation supplementation,human SR; @10 μM,112%
[Mn+2] [Mn^2+],activity of the enzyme relative to purified human SR without divalent cation supplementation,human SR; @10 μM,153%
magnesium 2-acetamidoethanesulfonate dihydrate [Test I],ln(C),D-serine [1]; Time 0 (pre-dose),−0.3877
same,Conc,D-serine [1]; Time 0 (pre-dose),0.6786
same,ln(C),D-serine [1]; Time 2 hr,−0.4986
same,Conc,D-serine [1]; Time 2 hr,0.6074
same,ln(C),D-serine [1]; Time 6 hr,−0.6686
same,Conc,D-serine [1]; Time 6 hr,0.5124
same,ln(C),D-serine [1]; Time 10 hr,−0.85
same,Conc,D-serine [1]; Time 10 hr,0.4274
same,AUC,D-serine [1]; cumulative to Time 2 hr,1.286
same,AUC,D-serine [1]; cumulative to Time 6 hr,3.5256
same,AUC 0-inf_obs,D-serine [1]; [3],11130 ng·h/mL
same,AUMC 0-inf_obs,D-serine [1]; [3],343.2 μg/ml*h^2
same,Cl/F_obs,D-serine [1]; [3],2.39 (mg)/(μg/ml)/h
same,Cmax,D-serine [1]; [3],678.6 ng/mL
same,MRT 0-inf_obs,D-serine [1]; [3],22.68 h
same,Tlag,D-serine [1]; [3],0 h
same,Tmax,D-serine [1]; [3],0 h
same,Vz/F_obs,D-serine [1]; [3],54.4 (mg)/(μg/ml)
same,t1/2,D-serine [1]; [3],15.78 h
same,AUC 0-t,"D-serine [1]; D-serine, rat plasma, non-compartmental analysis, 0-10 hr",3405.2 ng·h/mL
same,Lambda_z,"D-serine [1]; D-serine, rat plasma, non-compartmental analysis, extravascular input",0.04393 L/h
same,AUC values of D-serine,"D-serine [1]; rat plasma, G4 36.17 mg/kg, G5 31.01 mg/kg",increased
same,ln(C),D-serine [2]; Time 0 (pre-dose),−0.8701
same,Conc,D-serine [2]; Time 0 (pre-dose),0.4189
same,ln(C),D-serine [2]; Time 2 hr,−0.981
same,Conc,D-serine [2]; Time 2 hr,0.3749
same,ln(C),D-serine [2]; Time 6 hr,−1.151
same,Conc,D-serine [2]; Time 6 hr,0.3163
same,ln(C),D-serine [2]; Time 10 hr,−1.332
same,Conc,D-serine [2]; Time 10 hr,0.2638
same,AUC,D-serine [2]; cumulative to Time 2 hr,0.7938
same,AUC,D-serine [2]; cumulative to Time 6 hr,2.176
same,AUC 0-inf_obs,D-serine [2]; [4],7342 ng·h/mL
same,AUMC 0-inf_obs,D-serine [2]; [4],211.9 μg/ml*h^2
same,Cl/F_obs,D-serine [2]; [4],3.872 (mg)/(μg/ml)/h
same,Cmax,D-serine [2]; [4],418.9 ng/mL
same,MRT 0-inf_obs,D-serine [2]; [4],22.68 h
same,Tlag,D-serine [2]; [4],0 h
same,Tmax,D-serine [2]; [4],0 h
same,Vz/F_obs,D-serine [2]; [4],88.12 (mg)/(μg/ml)
same,t1/2,D-serine [2]; [4],15.78 h
same,AUC 0-t,"D-serine [2]; D-serine, rat brain tissue, non-compartmental analysis, 0-10 hr",2137 ng·h/mL
same,Lambda_z,"D-serine [2]; D-serine, rat brain tissue, non-compartmental analysis, extravascular input",0.04393 L/h
same,AUC values of D-serine,"D-serine [2]; rat brain tissue samples, G4 36.17 mg/kg, G5 31.01 mg/kg",increased
